Patent US7244583B2, “Device for detecting bacterial contamination and method of use” (priority 2000, dated 2007)
*: point of attachment. DABSYL = CN(C)c1ccc(/N=N/c2ccc(S(=O)(=O)*)cc2)cc1; EDANS = O=S(=O)(O)c1cccc2c(NCCN*)cccc12

Tests used:
mpl = assay: FRET analysis of mpl activity with DABCYL/EDANS-labeled peptide substrates (Listeria); assay type: biochemical, Listeria monocytogenes; settings: FRET peptide probe
From the text: The presence of L. monocytogenes contamination is detected by measuring the metalloprotease (mpl), which is found only in the pathogenic species of L. monocytogenes (Domann et al., infection and Immunity. 1991. January; 59(1):65-72; Mengaud et al., 1991). A series of peptides, M1 (lot 038-13/15) and P1 (lot 038-10/12), for use as synthetic substrates for mpl (Table 1) was designed and the sequences manufactured by New England Peptide (195 Kimball St., Fitchburg, Mass.). The peptides were synthesized with fluorescent groups (DABCYL and EDANS) in such a way that the active sites were not blocked. The M1 peptide is specific for L. monocytogenes at pH 5.5.
Fluorescence resonance energy transfer (FRET) is the process of a distance dependent excited state interaction in which the emission of one fluorescent molecule is coupled to the excitation of another. […] The cleavage reaction can be followed by observing either a decrease in DABCYL fluorescence or an increase in EDANS fluorescence (loss of quenching).
Determine the peptide sequence for the active site of the protease using fluorescence resonance energy transfer (FRET). Fluorescence resonance energy transfer (FRET) is the process of a distance dependent excited state interaction in which the emission of one fluorescent molecule is coupled to the excitation of another. […]

E. coli = assay: FRET peptide substrate cleavage/detection with E. coli; assay type: biochemical; settings: FRET peptide probe

Substance | Description: specificity of peptide substrate for Listeria (L. monocytogenes) (mpl; pH 5.5) | detection of the presence of E. coli by the peptide (E. coli; pH 5.5) | Description: cleavage by Listeria (mpl) | Description: cleavage by E. coli (E. coli)
DABSYL-NML, SEVERE-EDANS ({DABSYL}-NMLSEVERE-{EDANS}; SMILES CSCC[C@H](NC(=O)[C@H](CC(N)=O)NS(=O)(=O)c1ccc(/N=N/c2ccc(N(C)C)cc2)cc1)C(=O)N[C@@H](CC(C)C)C(=O)N[C@@H](CO)C(=O)N[C@@H](CCC(=O)O)C(=O)N[C@H](C(=O)N[C@@H](CCC(=O)O)C(=O)N[C@@H](CCCNC(=N)N)C(=O)N[C@@H](CCC(=O)O)C(=O)NCCNc1cccc2c(S(=O)(=O)O)cccc12)C(C)C) [Peptide M1, FRET-labeled synthetic peptide substrate for mpl of L. monocytogenes (lot 038-13/15)] | Specific to | does not significantly detect |  | 
DABSYL-ADTVEPTGAKE-EDANS ({DABSYL}-ADTVEPTGAKE-{EDANS}; SMILES CC(C)[C@H](NC(=O)[C@@H](NC(=O)[C@H](CC(=O)O)NC(=O)[C@H](C)NS(=O)(=O)c1ccc(/N=N/c2ccc(N(C)C)cc2)cc1)[C@@H](C)O)C(=O)N[C@@H](CCC(=O)O)C(=O)N1CCC[C@H]1C(=O)N[C@H](C(=O)NCC(=O)N[C@@H](C)C(=O)N[C@@H](CCCCN)C(=O)N[C@@H](CCC(=O)O)C(=O)NCCNc1cccc2c(S(=O)(=O)O)cccc12)[C@@H](C)O) [Peptide P2, FRET-labeled synthetic peptide probe] |  |  | Not cleaved | Not cleaved
